From patent publication US6867185B2 (Bristol-Myers Squibb Company, priority 2001, dated 2005)
Where a name gives a salt, the structure may show the parent alone.

Key:
Assay type in all cases: biochemical
[1] = test system: human pancreatic chymotrypsin; experiment: Specificity assay, chymotrypsin; details: 2 hr pre-incubation
Method: (§1) The specificities of compounds of the present invention were determined against a variety of serine proteases: human neutrophil elastase (HNE), porcine pancreatic elastase (PPE) and human pancreatic chymotrypsin and one cysteine protease: human liver cathepsin B. In all cases a 96-well plate format protocol using colorimetric p-nitroaniline (pNA) substrate specific for each enzyme was used as described previously (U.S. Pat. No. 6,323,180) with some modifications to the serine protease assays. All enzymes were purchased from Sigma while the substrates were from Bachem.
(§2) Each assay included a 2 hr enzyme-inhibitor pre-incubation at RT followed by addition of substrate and hydrolysis to ˜30% conversion as measured on a Spectramax Pro microplate reader. Compound concentrations varied from 100 to 0.4 μM depending on their potency. […]
(§3) The percentage of inhibition was calculated using the formula: [1−((UVinh−UVblank)/(UVctl−UVblank))]×100 […]

[2] = target: T1, porcine pancreatic elastase (PPE) (Sus scrofa, UniProt P00772); experiment: Specificity assay, porcine pancreatic elastase; details: 2 hr pre-incubation
T1 construct: purchased Sigma
T1 sequence (P00772 27-266): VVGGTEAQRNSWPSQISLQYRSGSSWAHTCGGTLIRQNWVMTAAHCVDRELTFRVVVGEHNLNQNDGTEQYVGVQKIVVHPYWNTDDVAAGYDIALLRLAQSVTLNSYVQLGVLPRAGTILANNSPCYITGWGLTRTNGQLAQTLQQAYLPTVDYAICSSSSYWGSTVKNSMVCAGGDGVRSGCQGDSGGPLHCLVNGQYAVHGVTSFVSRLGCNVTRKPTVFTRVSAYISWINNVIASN
Method: as §1, §2, §3

[3] = target: T2, HCV NS3/4A protease complex, BMS strain (genotype 1a) (Hepatitis C virus genotype 1a, UniProt P27958, C1454S/C1711G); experiment: Recombinant HCV NS3/4A protease complex FRET peptide assay (BMS strain)
T2 construct: recombinant HCV NS3/4A protease complex (amino'acids 1027 to 1711); inferred from the pET21b vector and Ni-NTA purification; made in house; host or cells: Escherichia coli BL21 (DE3), pET21b
T2 sequence (P27958 1027-1711 C1454S/C1711G, one chain of several): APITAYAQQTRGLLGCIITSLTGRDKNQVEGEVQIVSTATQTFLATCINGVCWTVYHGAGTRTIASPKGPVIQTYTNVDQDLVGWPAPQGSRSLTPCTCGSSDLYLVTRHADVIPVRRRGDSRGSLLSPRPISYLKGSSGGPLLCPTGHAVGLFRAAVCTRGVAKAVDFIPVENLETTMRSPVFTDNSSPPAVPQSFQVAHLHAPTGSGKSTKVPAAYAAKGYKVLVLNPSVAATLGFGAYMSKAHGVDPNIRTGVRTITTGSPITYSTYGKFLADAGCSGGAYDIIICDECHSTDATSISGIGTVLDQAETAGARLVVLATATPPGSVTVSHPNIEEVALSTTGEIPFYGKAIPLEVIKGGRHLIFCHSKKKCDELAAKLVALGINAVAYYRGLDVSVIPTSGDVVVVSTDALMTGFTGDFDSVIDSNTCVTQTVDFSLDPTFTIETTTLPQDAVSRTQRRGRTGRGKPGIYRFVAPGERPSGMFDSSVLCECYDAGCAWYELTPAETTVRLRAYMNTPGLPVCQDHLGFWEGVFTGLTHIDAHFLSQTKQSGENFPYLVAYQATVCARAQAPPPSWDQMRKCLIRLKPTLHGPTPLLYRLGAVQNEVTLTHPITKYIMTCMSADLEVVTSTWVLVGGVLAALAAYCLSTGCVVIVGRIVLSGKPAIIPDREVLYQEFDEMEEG
How it was run: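 Enzyme was NS3/4A complex (aa 1027-1711) from genotype 1a BMS strain, carrying C1454S and C1711G mutations plus a three-lysine tail, expressed in E. coli and Ni-NTA/size-exclusion purified to >90% purity.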

Compound: COc1ccc2c(O[C@@H]3C[C@H]4C(=O)N[C@]5(C(=O)NS(=O)(=O)C6CC6)CC5/C=C/CCCC[C@H](N)C(=O)N4C3)cc(-c3ccccc3)nc2c1 (stereo partly drawn) [Compound 6, (1S,4R,6S,13S,17R)-7-trans-Cyclopropanesulfonic acid [13-amino-17-(7-methoxy-2-phenylquinolin-4-yloxy)-2,14-dioxo-3,15-diazatricyclo[13.3.0.0^4,6]octadec-7-ene-4-carbonyl]amide dihydrochloride]
- IC50 [1]: > 100000 nM
- IC50 [2]: > 100000 nM
- IC50 ([3]; IC50, HCV NS3/4A protease FRET assay in vitro, IC50 ranges): < 50 nM
- IC50 ([3]; IC50, against the BMS HCV NS3/4A complex): 21 nM
